Source: ChEMBL document CHEMBL4138259, “Discovery of JTZ-951: A HIF Prolyl Hydroxylase Inhibitor for the Treatment of Renal Anemia” (ACS Med Chem Lett, 2017)
The source made the active and inactive calls. No cut-off for these calls is given here.

Tests used:
Rattus norvegicus [1] = assay: Toxicity in CD(SD) rat assessed as induction of anorexia at 100 mg/kg, po administered as single dose; assay type: organism-based; details: in vivo
in vitro = details: human, Caco-2
Rattus norvegicus [2] = assay: Antianemic activity in CD(SD) rat assessed as increase in hemoglobin levels at 10 mg/kg, po administered once daily for 28 days; assay type: functional, organism-based
Rattus norvegicus [3] = assay: Antianemic activity in CD(SD) rat assessed as increase in hemoglobin levels at 3 mg/kg, po administered once daily for 28 days; assay type: functional, organism-based
Rattus norvegicus [4] = assay: Upregulation of plasma EPO level in CD(SD) rat at 10 mg/kg, po administered as single dose measured after 8 hrs by RIA; assay type: functional
Mus musculus = assay: Upregulation of plasma EPO level in Balb/c mouse at 10 mg/kg, po administered as single dose measured after 8 hrs by ELISA; assay type: functional

Row | Structure (SMILES) | Activity (Rattus norvegicus [1]) | Papp A→B at 2 h, 25 µM (in vitro) [×10⁻⁶ cm/s] | Activity (Rattus norvegicus [2]) | Activity (Rattus norvegicus [3]) | Activity (Rattus norvegicus [4]) [pg/mL] | Activity (Mus musculus) [pg/mL]
1 | CCCCc1cc(O)c(C(=O)NCC(=O)O)c2ncnn12.Cl | Non-Toxic | 9.9 | Active | inactive | 2200 | 3700
2 | O=C(O)CNC(=O)c1c(O)ccn2ccnc12 |  | 0.8 |  |  |  | 
3 | Cl.O=C(O)CNC(=O)c1c(O)ccn2ncnc12 |  | 0.86 to 0.9 |  |  |  | 
4 | Cc1nc2c(C(=O)NCC(=O)O)c(O)cc(CCc3ccccc3)n2n1.Cl |  | 8.9 |  |  |  | <260
5 | Cl.O=C(O)CNC(=O)c1c(O)cc(C2CCCCC2)n2ncnc12 |  | 21 |  |  |  | 540
6 | Cl.O=C(O)CNC(=O)c1c(O)cc(-c2ccccc2)c2ncnn12 |  | 6.5 |  |  |  | <260
7 | CCCCCc1cc(O)c(C(=O)NCC(=O)O)c2ncnn12.Cl | Toxic | 20 |  |  | 11000 | 2300
8 | CCc1c(O)c(C(=O)NCC(=O)O)c2ncnn2c1CC.Cl |  | 9.3 |  |  |  | 1100
9 | Cl.O=C(O)CNC(=O)c1c(O)ccn2cnnc12 |  | < 0.4 |  |  |  | 
10 | CCCc1cc(O)c(C(=O)NCC(=O)O)c2ncnn12.Cl |  | 2.1 |  |  |  | <300
